# Values of other authors, collected in PMC7395068, “The evolution of strategies to minimise the risk of human drug-induced liver injury (DILI) in drug discovery and development” (Archives of Toxicology, 2020).
# Read-outs that look alike come from different tables or passages of the source.
# What was measured:
# [1] = test system: isolated mouse liver mitochondria; conditions: cited from earlier work
# [2] = cited from earlier work
# [3] = ref Chen 2016; cited from earlier work
# [4] = test system: primary human hepatocytes, NIH3T3 fibroblasts, BSEP, CYP3A4; conditions: cited from earlier work
# human hepatocytes = conditions: cited from earlier work
# [5] = test system: THLE or HepG2 cells, isolated mitochondria, BSEP; conditions: cited from earlier work
# [6] = In vitro Assay, ref Porceddu 2012
# [7] = isolated mouse liver mitochondria, EC20<=2uM, ref Porceddu 2012
# [8] = In vitro Assay, ref Schadt 2015
smiles,measurement,setting,value
Nc1c(Br)cc(Br)cc1CN[C@H]1CC[C@H](O)CC1 [Ambroxol],in vitro data EC2<=1x Cmax,[1]; [6],-VE
Cc1cc(=O)n(-c2ccccc2)n1C [Antipyrine],In vivo DILI,[2]; in vivo,-VE
same,in vitro data EC2<=1x Cmax,[1]; [6],+VE
same,in vitro data EC20<=2uM,[1]; [6],-VE
O=C(/C=C/c1ccc(O)c(O)c1)c1ccc(O)cc1O [Butein],in vitro data EC20<=2uM,[1]; [7],+VE
COc1cc(CNC(=O)CCCC/C=C/C(C)C)ccc1O [Capsaicin],In vivo DILI,[2]; ref Porceddu 2012,-VE
same,in vitro data EC2<=1x Cmax,[1]; [6],-VE
same,in vitro data EC20<=2uM,[1]; [6],+VE
O=P(O)(O)C(Cl)(Cl)P(=O)(O)O [Clodronate],In vivo DILI,[2]; ref Porceddu 2012,-VE
same,in vitro data EC2<=1x Cmax,[1]; [6],-VE
same,in vitro data EC20<=2uM,[1]; [6],-VE
COc1cc(/C=C/C(=O)CC(=O)/C=C/c2ccc(O)c(OC)c2)ccc1O [Curcumin],in vitro data EC2<=1x Cmax,[1]; [6],-VE
Clc1ccc(COC(Cn2ccnc2)c2ccc(Cl)cc2Cl)cc1 (centres unmarked) [Econazole],In vivo DILI,[2]; ref Porceddu 2012,+VE
same,in vitro data EC2<=1x Cmax,[1]; [6],+VE
same,in vitro data EC20<=2uM,[1]; [6],+VE
CCOC(=O)c1ccc(O)cc1 [Ethyl paraben],in vitro data EC20<=2uM,[1],-VE
O=C(O)c1ccccc1Nc1cccc(C(F)(F)F)c1 [Flufenamic acid],In vivo DILI,[2]; ref Porceddu 2012,+VE
same,in vitro data EC2<=1x Cmax,[1]; [6],+VE
same,in vitro data EC20<=2uM,[1]; [6],+VE
O=C(O)c1cc(O)c(O)c(O)c1 [Gallic acid],in vitro data EC2<=1x Cmax,[1]; [6],+VE
Cc1cc2c(C(C)C)c(O)c(O)c(C=O)c2c(O)c1-c1c(C)cc2c(C(C)C)c(O)c(O)c(C=O)c2c1O [Gossypol],In vivo DILI,[2]; ref Porceddu 2012,+VE
same,in vitro data EC20<=2uM,[1]; [6],+VE
O=C(O)c1nn(Cc2ccc(Cl)cc2Cl)c2ccccc12 [Lonidamine],In vivo DILI,[2]; ref Porceddu 2012,+VE
same,in vitro data EC2<=1x Cmax,[1]; [6],+VE
same,in vitro data EC20<=2uM,[1]; [6],+VE
CCOC(=O)[N-]c1cn(N2CCOCC2)n[o+]1 [Molsidomine],In vivo DILI,[2]; ref Porceddu 2012,-VE
same,in vitro data EC2<=1x Cmax,[1]; [6],-VE
same,in vitro data EC20<=2uM,[1]; [6],-VE
CO[C@]12C[C@@H](COC(=O)c3cncc(Br)c3)CN(C)[C@@H]1Cc1cn(C)c3cccc2c13 [Nicergoline],In vivo DILI,[2]; ref Porceddu 2012,-VE
same,in vitro data EC2<=1x Cmax,[1]; [6],-VE
same,in vitro data EC20<=2uM,[1]; [6],+VE
Oc1cc(O)cc(O)c1 [Phloroglucinol],in vitro data EC20<=2uM,[1]; [7],-VE
Oc1ccc(/C=C/c2cc(O)cc(O)c2)cc1 [Resveratrol],in vitro data EC2<=1x Cmax,[1]; [6],-VE
O=C1NS(=O)(=O)c2ccccc21 [Saccharin],In vivo DILI,[2]; ref Porceddu 2012,+VE
same,in vitro data EC2<=1x Cmax,[1]; [6],+VE
same,in vitro data EC20<=2uM,[1]; [6],-VE
OC[C@H]1O[C@@](CO)(O[C@H]2O[C@H](CO)[C@@H](O)[C@H](O)[C@H]2O)[C@@H](O)[C@@H]1O [Sucrose],in vitro data EC20<=2uM,[1],-VE
Cc1c(Cl)cccc1Nc1ccccc1C(=O)O [Tolfenamic acid],In vivo DILI,[2]; ref Porceddu 2012,+VE
same,in vitro data EC2<=1x Cmax,[1]; [6],+VE
same,in vitro data EC20<=2uM,[1]; [6],+VE
C[C@@H]1O[C@@H](OC[C@H]2O[C@@H](Oc3c(-c4ccc(OCCO)c(OCCO)c4)oc4cc(OCCO)cc(O)c4c3=O)[C@H](O)[C@@H](O)[C@@H]2O)[C@H](O)[C@H](O)[C@H]1O [Troxerutin],In vivo DILI,[2]; ref Porceddu 2012,-VE
same,in vitro data EC2<=1x Cmax,[1]; [6],-VE
same,in vitro data EC20<=2uM,[1]; [6],+VE
CC1(C)S[C@@H]2[C@H](NC(=O)[C@H](N)c3ccccc3)C(=O)N2[C@H]1C(=O)O [ampicillin],in vitro data EC2<=1x Cmax,[1]; [6],+VE
O=[As]O[As]=O (centres unmarked) [arsenic trioxide],"DILI +VE (5-8), DILI -VE (-4)",[3],-VE
same,DILI severity category,[3],Ambiguous DILI-concern
same,In vivo DILI,[2]; ref Porceddu 2012,+VE
same,in vitro data EC2<=1x Cmax,[1]; [6],-VE
same,in vitro data EC20<=2uM,[1]; [6],+VE
COc1cc2c(c(OC)c1OC)-c1ccc(OC)c(=O)cc1[C@@H](NC(C)=O)CC2 [colchicine],Cellular toxicity (3T3 cells),[4],+VE
same,Combined Assay,[4],-VE
same,GSH adduct HML,[4],-VE
same,Hepatocyte cellular toxicity,[4],-VE
same,MitoTox 3T3,[4],-VE
same,TDI CYP3A4,[4],-VE
same,hBSEP inhibition,[4],-VE
same,Structural based (HCI),human hepatocytes,-VE
same,Partition Hybrid HRM Score,[5],-VE
CC(=O)N(O)CCCCCNC(=O)CCC(=O)N(O)CCCCCNC(=O)CCC(=O)N(O)CCCCCN [deferoxamine],"DILI +VE (5-8), DILI -VE (-4)",[3],+VE
same,DILI severity category,[3],vLess-DILI-Concern
same,Structural based (HCI),"human hepatocytes; In vitro Assay, ref Xu 2008",+VE
same,Partition Hybrid HRM Score,"[5]; In vitro Assay, ref Aleo 2019",+VE
same,Ro2 Hybrid HRM Score,"[5]; In vitro Assay, ref Aleo 2019",+VE
same,In vivo DILI,[2]; ref Aleo 2019,+VE
same,In vivo DILI,[2]; ref Xu 2008,+VE
C[C@H]1O[C@@H](O[C@H]2[C@@H](O)C[C@H](O[C@H]3[C@@H](O)C[C@H](O[C@H]4CC[C@@]5(C)[C@H](CC[C@@H]6[C@@H]5C[C@@H](O)[C@]5(C)[C@@H](C7=CC(=O)OC7)CC[C@]65O)C4)O[C@@H]3C)O[C@@H]2C)C[C@H](O)[C@@H]1O [digoxin],Cellular toxicity (3T3 cells),[4]; [8],-VE
same,Combined Assay,[4]; [8],-VE
same,GSH adduct HML,[4]; [8],-VE
same,Hepatocyte cellular toxicity,[4]; [8],-VE
same,MitoTox 3T3,[4]; [8],-VE
same,TDI CYP3A4,[4]; [8],-VE
same,hBSEP inhibition,[4]; [8],-VE
same,Structural based (HCI),"human hepatocytes; In vitro Assay, ref Xu 2008",-VE
same,Ro2 Hybrid HRM Score,"[5]; In vitro Assay, ref Aleo 2019",-VE
same,Partition Hybrid HRM Score,[5],-VE
Cc1c(N(C)CS(=O)(=O)[O-])c(=O)n(-c2ccccc2)n1C.[Na+] [dipyrone],in vitro data EC20<=2uM,[1],+VE
C=C1CC[C@H](O)C/C1=C/C=C1\CCC[C@]2(C)[C@@H]([C@H](C)/C=C/[C@H](C)C(C)C)CC[C@@H]12 [ergocalciferol],"DILI +VE (5-8), DILI -VE (-4)",[3],-VE
same,DILI severity category,[3],vNo-DILI-Concern
same,Structural based (HCI),"human hepatocytes; In vitro Assay, ref Xu 2008",-VE
same,Partition Hybrid HRM Score,"[5]; In vitro Assay, ref Aleo 2019",-VE
same,Ro2 Hybrid HRM Score,"[5]; In vitro Assay, ref Aleo 2019",-VE
same,In vivo DILI,[2]; ref Aleo 2019,-VE
same,In vivo DILI,[2]; ref Xu 2008,-VE
O=c1c(-c2ccc(O)cc2)coc2cc(O)cc(O)c12 [genistein],In vivo DILI,[2]; in vivo,-VE
same,in vitro data EC20<=2uM,[1],+VE
[Cl][Mn][Cl] [manganese chloride],In vivo DILI,[2]; ref Porceddu 2012,-VE
same,in vitro data EC2<=1x Cmax,[1]; [6],-VE
same,in vitro data EC20<=2uM,[1]; [6],-VE
Cc1cn(-c2cc(NC(=O)c3ccc(C)c(Nc4nccc(-c5cccnc5)n4)c3)cc(C(F)(F)F)c2)cn1 [nilotinib],in vitro data EC2<=1x Cmax,[1]; [6],+VE
NC(=O)c1ncn([C@@H]2O[C@H](CO)[C@@H](O)[C@H]2O)n1 [ribavirin],"DILI +VE (5-8), DILI -VE (-4)",[3],-VE
same,DILI severity category,[3],Ambiguous DILI-concern
same,Structural based (HCI),"human hepatocytes; In vitro Assay, ref Xu 2008",-VE
same,Partition Hybrid HRM Score,"[5]; In vitro Assay, ref Aleo 2019",-VE
same,Ro2 Hybrid HRM Score,"[5]; In vitro Assay, ref Aleo 2019",-VE
same,In vivo DILI,[2]; ref Xu 2008,-VE
Cc1cc2nc3c(=O)[nH]c(=O)nc-3n(C[C@H](O)[C@H](O)[C@H](O)CO)c2cc1C [riboflavin],in vitro data EC2<=1x Cmax,[1]; [6],-VE
CC[C@H]1OC(=O)[C@H](C)[C@@H](O[C@H]2C[C@@](C)(OC)[C@@H](O)[C@H](C)O2)[C@H](C)[C@@H](O[C@@H]2O[C@H](C)C[C@H](N(C)C)[C@H]2O)[C@](C)(O)C[C@@H](C)/C(=N\OCOCCOC)[C@H](C)[C@@H](O)[C@]1(C)O [roxithromycin],In vivo DILI,[2]; ref Porceddu 2012,+VE
same,in vitro data EC2<=1x Cmax,[1]; [6],+VE
same,in vitro data EC20<=2uM,[1]; [6],-VE
NCCS(=O)(=O)O [taurine],in vitro data EC20<=2uM,[1]; [7],-VE
CC[C@H]1OC(=O)[C@H](C)C(=O)[C@H](C)[C@@H](O[C@@H]2O[C@H](C)C[C@H](N(C)C)[C@H]2O)[C@](C)(OC)C[C@@H](C)C(=O)[C@H](C)[C@H]2N(CCCCn3cnc(-c4cccnc4)c3)C(=O)O[C@]12C [telithromycin],"DILI +VE (5-8), DILI -VE (-4)",[3],+VE
same,DILI severity category,[3],vMost-DILI-Concern
same,Structural based (HCI),"human hepatocytes; In vitro Assay, ref Xu 2008",+VE
same,Partition Hybrid HRM Score,"[5]; In vitro Assay, ref Aleo 2019",+VE
same,Ro2 Hybrid HRM Score,"[5]; In vitro Assay, ref Aleo 2019",+VE
same,In vivo DILI,[2]; ref Aleo 2019,+VE
same,In vivo DILI,[2]; ref Xu 2008,+VE
CCCc1nc2c(C)cc(-c3nc4ccccc4n3C)cc2n1Cc1ccc(-c2ccccc2C(=O)O)cc1 [telmisartan],"DILI +VE (5-8), DILI -VE (-4)",[3],+VE
same,DILI severity category,[3],vLess-DILI-Concern
same,Cellular toxicity (3T3 cells),[4],-VE
same,Combined Assay,[4],+VE
same,GSH adduct HML,[4],-VE
same,Hepatocyte cellular toxicity,[4],+VE
same,MitoTox 3T3,[4],-VE
same,TDI CYP3A4,[4],-VE
same,hBSEP inhibition,[4],+VE
same,Structural based (HCI),"human hepatocytes; In vitro Assay, ref Xu 2008",-VE
same,Partition Hybrid HRM Score,"[5]; In vitro Assay, ref Aleo 2019",+VE
same,Ro2 Hybrid HRM Score,"[5]; In vitro Assay, ref Aleo 2019",+VE
same,In vivo DILI,[2]; ref Aleo 2019,+VE
same,In vivo DILI,[2]; ref Schadt 2015,-VE
same,In vivo DILI,[2]; ref Xu 2008,-VE
